In one series the target is ITCH (Homo sapiens, UniProt Q96J02). The following applies: cited from earlier work.
Series [1] concerns the target T1, UBCH7 and ITCH (Homo sapiens, UniProt Q96J02). The series is described as follows: UBCH7-ITCH interaction, proximity ligation assay (PLA) in cancer cell lines. In kind it is cell-based. The following applies: M229R5, H358, M238R1 and M238, 100 μM for 2 days. The method, then: Right panel: M229R5, H358, M238R1 and M238 cells were treated with DMSO or AK087 (100 μM) for 2 days followed by proximity ligation assay (PLA) using anti-UBCH7 and anti-ITCH antibodies. Signal dots per cell was quantified by the Duolink ImageTool. For bar graph: n=2-3. Means±SEM. *p<0.05, **p<0.01, student's t test.
For bar graph: n=2-3. Means #SEM. *p<0.05, **p<0.01, student's t test.

The next series relates to endogenous PD-L1. The series is described as follows: Ubiquitination assay (anti-PD-L1 IP and WB detection of UB) in M238 R1 cells. In kind it is cell-based, human. The following applies: 0, 40, 80 μM for 6 days, then MG-132 20 μM 4 hours. On the procedure: (§1) (6A) Structure and chemical name of AK087. (6B) M238R1 cells with ITCH-FLAG over-expression were treated with 0, 40, or 80 μM of AK087 for 6 days and then treated with MG-132 (20 μM) for 4 hours followed by anti-PD-L1 or anti-FLAG IP and Western blot (WB) detection of UB. (6C) 293T cells co-transfected with PD-L1-FLAG and ITCH-HA were treated with 0, 40, or 80 μM of AK087 for 6 days and then treated with MG-132 (20 μM) for 4 hours followed by anti-HA or anti-FLAG IP and WB detection of UB. (6D) M238R1 cell-surface levels of PD-L1 (left) and PD-L2 (right) as measured by cell-surface staining and FACS analysis after 0, 20, 40, 80 μM AK087 treatment for 6 days. Mean±SEMs (n=3). […]

Series [2] has as its system YUMM1.7ER melanoma tumors. The series is described as follows: Subcutaneous syngeneic YUMM1.7ER tumors on trametinib, acquired MAPKi-resistance. The class given is in vivo.
Another series has as its system YUMM1.7ER. The series is described as follows: Response of YUMM1.7ER melanoma to immune checkpoint blockade. In kind it is in vivo, murine. The following applies: AK087 10 mg/kg/day subcutaneously with anti-PD-1, anti-CTLA-4. On the procedure: (§2) Data are derived from two murine models of melanoma, YUMM1.ER, Braf^V600MUT melanoma, and NILER1-4, […] melanoma. (15A) YUMM1.7ER. n=9-10 per group. Means±SEM. Anti-PD-1 200 μg/mouse, anti-CTLA-4 200 μg/mouse three times a week for the first two weeks, then change to twice/week treatment. AK087 10 mg/kg/day (Subcutaneously, daily) administration. *p<0.05, student's t test. (15B) NILER1-4. n=8-10 per group. Means±SEM. Anti-PD-1 200 μg/mouse, anti-CTLA-4 200 g/mouse, aLAG-3 200 μg/mouse three times a week for the first two weeks, then change to twice/week treatment. AK087 15 mg/kg/day (Subcutaneously, daily) administration. *p<0.05, student's t test.
as §2, with “melanoma. […]” for “melanoma. (15A) YUMM1.7ER. n=9-10 per group.”, “then changed” for “then change”, “test. […]” for “test. (15B) NILER1-4. n=8-10 per group.”, “200 μg/mouse,” for “200 g/mouse,”

Series [3] has as its system tumor cell-surface PD-L1/L2. As to the kind of experiment: Cell-surface PD-L1 and PD-L2 detection by cell-surface staining and FACS analysis in cultured cell lines. In kind it is cell-based, human. On the procedure: as §1
(§3) FIGS. 9A-9N show physical and functional interactions between ITCH and PD-L1/L2. (9A) Cell-surface levels of PD-L2 in M238R1 (left) and MDA-MB-231 (right) cells stably expressing control shRNA (shCtr) or ITCH-targeting shRNAs (shiICH-1, shiICH-2), as measured by cell-surface staining and FACS analysis (PD-L2 is not detectable in H358 cells). MFI, mean fluorescence intensity. […] (9B) Cell-surface levels of PD-L2 in M238 R1 cells stably expressing empty vector (Vec) or over-expression (OE) ITCH, as measured by cell-surface staining and FACS analysis. […] (9C) Cell-surface levels of PD-L1 in M238R1, H358, and MDA-MB-231 stably expressing control shRNA (shCtr) or ITCH-targeting shRNAs (shiICH-1, shiICH-2) and M238R1 stably expressing empty vector (Vec) or OE ITCH, as measured by immunofluorescence staining. […] (9D) PD-L1 internalization in M238 R1 cells stably expressing empty vector (Vec) or OE ITCH, as measured by FACS analysis. […]

The target of the next series is T2, ITCH-FLAG (Homo sapiens, UniProt Q96J02).
T2 construct: expressed in transfected cells
T2 sequence (Q96J02 whole entry): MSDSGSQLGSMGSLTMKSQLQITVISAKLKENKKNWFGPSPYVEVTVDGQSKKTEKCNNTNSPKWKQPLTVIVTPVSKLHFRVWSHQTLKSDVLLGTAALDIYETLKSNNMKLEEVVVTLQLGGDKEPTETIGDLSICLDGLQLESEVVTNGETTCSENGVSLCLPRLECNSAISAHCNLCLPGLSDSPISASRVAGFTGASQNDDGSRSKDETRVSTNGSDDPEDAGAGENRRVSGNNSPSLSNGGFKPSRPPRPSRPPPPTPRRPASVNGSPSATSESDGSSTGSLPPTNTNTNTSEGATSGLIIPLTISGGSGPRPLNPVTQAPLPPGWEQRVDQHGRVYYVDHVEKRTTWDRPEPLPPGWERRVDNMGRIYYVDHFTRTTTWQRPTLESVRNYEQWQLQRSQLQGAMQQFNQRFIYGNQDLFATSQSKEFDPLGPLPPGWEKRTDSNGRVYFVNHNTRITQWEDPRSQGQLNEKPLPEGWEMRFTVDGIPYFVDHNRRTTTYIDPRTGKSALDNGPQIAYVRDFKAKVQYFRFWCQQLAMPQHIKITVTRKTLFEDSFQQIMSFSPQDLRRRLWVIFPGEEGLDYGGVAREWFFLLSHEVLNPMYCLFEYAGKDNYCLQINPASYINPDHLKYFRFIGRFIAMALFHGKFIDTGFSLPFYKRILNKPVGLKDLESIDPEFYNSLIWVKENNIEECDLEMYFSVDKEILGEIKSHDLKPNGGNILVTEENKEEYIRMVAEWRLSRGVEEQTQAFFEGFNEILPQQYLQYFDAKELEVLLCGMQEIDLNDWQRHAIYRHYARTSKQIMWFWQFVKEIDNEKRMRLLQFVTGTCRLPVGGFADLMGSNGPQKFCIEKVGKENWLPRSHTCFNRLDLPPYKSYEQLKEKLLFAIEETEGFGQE
As to the kind of experiment: Ubiquitination assay (IP and WB detection of UB) in M238 R1 cells expressing ITCH-FLAG. The following applies: 0, 40, 80 μM for 6 days, then MG-132 20 μM 4 hours. In kind it is cell-based. On the procedure:
as §1

For series [4], the target named is T1, UBCH7 and ITCH. The series is described as follows: UBCH7-ITCH interaction, anti-FLAG immunoprecipitation and WB in HEK293T cells. The class given is cell-based. More on the design: expressed in transfected cells; host or cells: HEK293T. The following applies: HA-UBCH7 and ITCH-FLAG, 100 μM for 24 or 36 hours.
A further series concerns NILER1-4. As to the kind of experiment: Response of NILER1-4 melanoma to immune checkpoint blockade. The following applies: AK087 15 mg/kg/day subcutaneously with anti-PD-1, anti-CTLA-4, aLAG-3. The class given is in vivo, murine. The method, then:
as §2
as §2, with “melanoma. […]” for “melanoma. (15A) YUMM1.7ER. n=9-10 per group.”, “then changed” for “then change”, “test. […]” for “test. (15B) NILER1-4. n=8-10 per group.”, “200 μg/mouse,” for “200 g/mouse,”

Another series has as its system total PD-L1. As to the kind of experiment: Western blots of total PD-L1 protein levels in cultured cell lines. In kind it is cell-based, human. The following applies: for total PD-L1 protein level: 20, 40, 80 μM for 6 days. On the procedure:
as §1, §3
(In western blotting, separated proteins are transferred to a membrane and probed.)

The mark [5] stands for this setting: AK087 10 mg/kg/day for 17 days, co-treatment with trametinib.
Setting [6] is: M238 R1 Vec or OE ITCH, 16 hours.

Where two headings read alike, the source gives them in different places.

Chain of ITCH (Q96J02 whole entry, species assumed): as the sequence (Q96J02 whole entry) above
T1 sequence (Q96J02 whole entry): as above
T1 sequence (P68036 whole entry partner): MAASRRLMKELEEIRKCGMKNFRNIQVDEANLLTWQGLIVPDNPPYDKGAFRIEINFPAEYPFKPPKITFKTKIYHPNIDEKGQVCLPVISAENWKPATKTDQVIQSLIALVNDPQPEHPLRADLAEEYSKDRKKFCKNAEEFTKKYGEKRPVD

Consider `Cc1ccc(N2C(=O)C(Cl)=C(N3CCCCC3)C2=O)cc1` [RL 2, 3-chloro-1-(4-methylphenyl)-4-piperidin-1-yl-1H-pyrrole-2,5-dione], for which the “Activity (%)” value at ITCH (Screening concentration 10 uM) was 141%.
Turning to `Cc1ccc(NS(=O)(=O)c2ccccc2)cc1C` [RL 3, N-(3,4-dimethylphenyl)benzenesulfonamide], the “Activity (%)” value at ITCH (Screening concentration 10 uM) was 140%.
Regarding `Cc1ccc(S(=O)(=O)c2cc3ccc(C)n3cn2)cc1` [RL 4, 4-methylphenyl 7-methylpyrrolo[1,2-c]pyrimidin-3-yl sulfone], the “Activity (%)” value at ITCH (Screening concentration 10 uM) is 145%.
On to `COc1cc2oc(=O)cc(C)c2c(OC)c1OC` [RL 5, 5,6,7-trimethoxy-4-methyl-2H-chromen-2-one], for which the “interaction between UBCH7 and ITCH” value on UBCH7 and ITCH [1] is reported as “enhances the interaction”; on UBCH7 and ITCH [4], “enhances the interaction”. Moreover, in the series on endogenous PD-L1, the “poly-ubiquitination of endogenous PD-L1” value is on record as “enhancing the poly-ubiquitination”. Also, in series [2] (setting [5]), the “body weight loss / toxicities” value is recorded as “no appreciable body weight loss or superficial evidence of toxicities”. Also, the complete responses in [2] (setting [5]) is 5 of 9. For the same molecule, the “acquired MAPKi-resistance” value in series [2] (AK087 10 mg/kg/day subcutaneously for 17 days, co-treatment with trametinib 0.45 mg/kg/d) was “suppressed acquired MAPKi-resistance”. Besides, the “response to immune checkpoint blockade” value in the series on YUMM1.7ER and with NILER1-4 was “improves responses” each time. Moreover, the “tumor cell-surface PD-L1” value in series [3] (H358, 0, 20, 40, 80 μM for 6 days) is reported as “dose-dependently reduced”. Also, the “tumor cell-surface PD-L1/L2” value in [3] (M238 R1, 0, 20, 40, 80 μM for 6 days) is “dose-dependently reduced”. On ITCH-FLAG, the “poly/auto-ubiquitination of ITCH-FLAG” value is “dose-dependently enhanced”. Further, the “Activity (%)” value on ITCH (Screening concentration 10 uM) is recorded as 140%. In addition, the “enhancement of auto-ubiquitination of ITCH” value at ITCH (reconstituted recombinant proteins, small molecule screen (ref. 25)) is given as 140%. Besides, the “total PD-L1 protein level” value in the series with total PD-L1 (H358) and in the series on total PD-L1 (M238 R1) was “dose-dependently reduced” each time.
With `Cc1[nH]nc2c1C(c1ccccc1OC(C)C)C(C#N)=C(N)O2` (stereo not shown) [RL 6, 6-amino-3-methyl-4-{2-[(1-methylethyl)oxy]phenyl}-2,4-dihydropyrano[2,3-c]pyrazole-5-carbonitrile], at ITCH (Screening concentration 10 uM), the “Activity (%)” value was 194%.
Regarding `CCN(CC)CCCC(C)Nc1ccnc2cc(Cl)ccc12` (stereo not shown) [chloroquine, reference compound], the “down-regulation of cell-surface PD-L1 levels elicited by ITCH over-expression” value in series [3] (setting [6]) is given as “rescued down-regulation”. Besides, the “down-regulation of total PD-L1 levels elicited by ITCH over-expression” value with total PD-L1 (setting [6]) is “rescued down-regulation”.
Regarding “CHLORO- PHYLLIDE Cu COMPLEX Na SALT [RL 1]”, the “Activity (%)” value on ITCH (Screening concentration 20 uM) is given as 147%.

Source of the values: patent US20250101108A1, “METHODS TO ENHANCE THERAPEUTIC EFFICACY IN MELANOMA VIA MODULATION OF CELL SURFACE PD-L1/L2” (THE REGENTS OF THE UNIVERSITY OF CALIFORNIA, priority 2021, published 2025).
